Assays:
Assay type in all cases: binding
KRAS G12D = target: T1, KRAS G12D (Homo sapiens, UniProt P01116, G12D); assay: HTRF assay of K-Ras G12D interaction with SOS1 (PPI-HTRF); details: HTRF, 5 nM KRAS G12D; read-out: PPI-HTRF-5 nM KRAS G12D
T1 construct: made in house; host or cells: E. coli, e.g. BL21 (DE3)
Text: (§1) This assay can be also used to assess a selective inhibition or reduction of signaling output of a mutant Ras protein relative to a wildtype, or relative to a different mutant Ras protein. For example, the equilibrium interaction of wildtype Kras or K-Ras mutant (e.g., wildtype or a mutant thereof including those mentioned in Example 4) with SOS1 (e.g., hSOS1) can be assessed as a proxy or an indication for a subject compound's ability to bind and inhibit Ras protein. HTRF assay detects from (i) a fluorescence resonance energy transfer (FRET) donor (e.g., antiGST-Europium) that is bound to GST-tagged K-Ras mutant to (ii) a FRET acceptor (e.g., anti-6His-XL665) bound to a His-tagged hSOS1.
(§2) The assay buffer can contain ˜5 mM HEPES pH 7.4, ˜150 mM NaCl, ˜1 mM DTT, 0.05% BSA and 0.0025% (v/v) Igepal. A Ras working solution is prepared in an assay buffer containing typically a suitable amount of the protein construct (e.g., GST-tagged K-Ras mutant) and the FRET donor (e.g., antiGST-Eu(K) from Cisbio, France). A SOS1 working solution is prepared in an assay buffer containing suitable amount of the protein construct (e.g., His-hSOS1) and the FRET acceptor (e.g., anti-6His-XL665 from Cisbio, France). A suitable amount of the protein construct will depend on the range of activity or range of IC50 values being detected or under investigation. For detecting IC50 within a range of 500 nM, the protein constructs of the same range of molarity can be utilized. […] A fixed volume of DMSO with or without test compound is transferred into a 384-well plate. Ras working solution is added to all wells of the test plate. SOS1 working solution is added to all wells except for those that are subsequently filled the inhibitor control solution. Upon incubation for about 10 minutes or longer, the fluorescence is measured with a M1000Pro plate reader (Tecan) using HTRF detection (excitation 337 nm, emission 1: 620 nm, emission 2: 665 nm). Compounds are tested in duplicates at different concentrations (for example, 10 μM, 2.5 μM, 0.63 μM, 0.16 μM, 0.04 μM, 0.01 μM test compound). The ratiometric data (i.e., emission 2 divided by emission 1) is used to calculate IC50 values against Ras using GraphPad Prism (GraphPad software). Following this general procedure, samples were tested with or without a subject compound disclosed herein including compounds exemplified in Table 1 to assess their abilities to inhibit a mutant K-Ras relative to another mutant K-Ras or wildtype K-Ras. Signaling output measured in terms of IC50 values can be obtained, a ratio of IC50 against one mutant relative to another mutant can be calculated. For instance, a selective reduction of K-Ras G12D signaling output can be evidenced by a ratio greater than one. In particular, a selective reduction of K-Ras G12D signaling relative to K-Ras WT signaling is evidenced as the ratio of IC50 (against K-Ras WT) to IC50 (against K-Ras G12D) is greater than 1.

KRAS G12S = target: T2, KRAS G12S (Homo sapiens, UniProt P01116, G12S); assay: HTRF assay of K-Ras G12S interaction with SOS1 (PPI-HTRF); details: 5 nM KRAS G12S, read-out: PPI-HTRF-5 nM KRAS G12S
T2 construct: made in house; host or cells: E. coli, e.g. BL21 (DE3)
T2 sequence (P01116 1-188 isoform P01116-2 G12S): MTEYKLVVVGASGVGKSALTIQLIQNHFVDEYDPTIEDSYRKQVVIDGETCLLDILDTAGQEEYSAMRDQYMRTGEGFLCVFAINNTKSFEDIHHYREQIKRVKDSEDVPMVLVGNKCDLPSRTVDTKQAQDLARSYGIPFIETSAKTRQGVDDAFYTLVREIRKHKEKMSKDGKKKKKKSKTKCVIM
Text: as §1, §2

KRAS WT = target: T3, KRAS WT (Homo sapiens, UniProt P01116); assay: HTRF assay of wildtype K-Ras interaction with SOS1 (PPI-HTRF); details: HTRF, 5 nM KRAS WT; read-out: PPI-HTRF-5 nM KRAS WT
T3 construct: made in house; host or cells: E. coli, e.g. BL21 (DE3)
T3 sequence (P01116 1-188 isoform P01116-2): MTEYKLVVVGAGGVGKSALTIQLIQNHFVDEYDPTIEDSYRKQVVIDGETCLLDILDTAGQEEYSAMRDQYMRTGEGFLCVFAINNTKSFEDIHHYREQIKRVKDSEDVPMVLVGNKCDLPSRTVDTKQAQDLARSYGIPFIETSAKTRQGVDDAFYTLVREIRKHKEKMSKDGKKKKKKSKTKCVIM
Text: as §1, §2

T1 sequence (P01116 1-188 isoform P01116-2 G12D): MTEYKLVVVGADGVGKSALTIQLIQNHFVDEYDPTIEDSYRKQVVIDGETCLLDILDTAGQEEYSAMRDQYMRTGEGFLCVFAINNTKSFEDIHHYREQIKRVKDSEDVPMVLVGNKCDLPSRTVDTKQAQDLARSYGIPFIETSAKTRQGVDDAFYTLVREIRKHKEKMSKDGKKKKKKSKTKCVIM

Compound | IC50 (KRAS G12D) [µM] | IC50 (KRAS G12S) [µM] | IC50 (KRAS WT) [µM]
CN1CCC[C@H]1COc1nc2c(c(N3CCC4(CCN4C(=O)n4cncn4)C3)n1)CCN(c1cccc3cccc(Cl)c13)C2 (stereo partly drawn) [Compound 245, (6-(7-(8-chloronaphthalen-1-yl)-2-(((S)-1-methylpyrrolidin-2-yl)methoxy)-5,6,7,8-tetrahydropyrido[3,4-d]pyrimidin-4-yl)-1,6-diazaspiro[3.4]octan-1-yl)(1H-1,2,4-triazol-1-yl)methanone] | > 5 | > 5 | > 5
C[C@H](Oc1nc(N2CCC3(CCN3C(=O)C3CC3(F)F)C2)c2cc(Cl)c(-c3ccc(F)c4sc(N)c(C#N)c34)c(F)c2n1)[C@@H]1CCCN1C (stereo partly drawn) [Compound 280, 2-amino-4-(6-chloro-4-(1-(2,2-difluorocyclopropane-1-carbonyl)-1,6-diazaspiro[3.4]octan-6-yl)-8-fluoro-2-((S)-1-((S)-1-methylpyrrolidin-2-yl)ethoxy)quinazolin-7-yl)-7-fluorobenzo[b]thiophene-3-carbonitrile] | < 5 | < 5 | < 5
Nc1nc2c(-c3c(Cl)cc4c(N5CC6(CCN6C(=O)n6cncn6)C5)nc(OC[C@@]56CCCN5C[C@H](F)C6)nc4c3F)ccc(F)c2s1 [Compound 273, (6-(7-(2-amino-7-fluorobenzo[d]thiazol-4-yl)-6-chloro-8-fluoro-2-(((2R,7aS)-2-fluorotetrahydro-1H-pyrrolizin-7a(5H)-yl)methoxy)quinazolin-4-yl)-1,6-diazaspiro[3.3]heptan-1-yl)(1H-1,2,4-triazol-1-yl)methanone] | < 5 | < 5 | < 5
Nc1nc2c(-c3c(Cl)cc4c(N5CCCC6(CC5)CCN6C=O)nc(OC[C@@]56CCCN5C[C@H](F)C6)nc4c3F)ccc(F)c2s1 (stereo partly drawn) [Compound 233, 7-(7-(2-amino-7-fluorobenzo[d]thiazol-4-yl)-6-chloro-8-fluoro-2-(((2R,7aS)-2-fluorotetrahydro-1H-pyrrolizin-7a(5H)-yl)methoxy)quinazolin-4-yl)-1,7-diazaspiro[3.6]decane-1-carbaldehyde] | < 5 | < 5 | < 5
Nc1nc2c(-c3c(F)c4nc(OC[C@@]56CCCN5C[C@H](F)C6)nc(N5CCC6(CCN6C(=O)n6cncn6)C5)c4c(=O)n3C3CC3)ccc(F)c2s1 (stereo partly drawn) [Compound 257, 4-(1-(1H-1,2,4-triazole-1-carbonyl)-1,6-diazaspiro[3.4]octan-6-yl)-7-(2-amino-7-fluorobenzo[d]thiazol-4-yl)-6-cyclopropyl-8-fluoro-2-(((2R,7aS)-2-fluorotetrahydro-1H-pyrrolizin-7a(5H)-yl)methoxy)pyrido[4,3-d]pyrimidin-5(6H)-one] | < 5 | < 5 | < 5
C#Cc1c(F)ccc2cc(O)cc(-c3ncc4c(N5CCC6(CCN6)C5)nc(O[C@@H](C)[C@@H]5CCCN5C)nc4c3F)c12 (stereo partly drawn) [Compound 239, 5-ethynyl-6-fluoro-4-(8-fluoro-2-((S)-1-((S)-1-methylpyrrolidin-2-yl)ethoxy)-4-(1,6-diazaspiro[3.4]octan-6-yl)pyrido[4,3-d]pyrimidin-7-yl)naphthalen-2-ol] | > 5 | < 5 | < 5

The next lines start with the values.

IC50 (KRAS G12D) [µM] | IC50 (KRAS G12S) [µM] | IC50 (KRAS WT) [µM] | Compound
> 5 | < 5 | > 5 | N#Cc1c(N)sc2c(F)ccc(-c3c(Cl)cc4c(N5CC6(CCN6C(=O)n6cnc(Cl)n6)CC5C(F)F)nc(OC[C@@]56CCCN5C[C@H](F)C6)nc4c3F)c12 (stereo partly drawn) [Compound 323, 2-amino-4-(6-chloro-4-(1-(3-chloro-1H-1,2,4-triazole-1-carbonyl)-7-(difluoromethyl)-1,6-diazaspiro[3.4]octan-6-yl)-8-fluoro-2-(((2R,7aS)-2-fluorotetrahydro-1H-pyrrolizin-7a(5H)-yl)methoxy)quinazolin-7-yl)-7-fluorobenzo[b]thiophene-3-carbonitrile]
< 5 | < 5 | < 5 | N#Cc1c(N)sc2c(F)ccc(-c3c(Cl)cc4c(N5CCC6(CCN6C(=O)n6ccnn6)C5)nc(OC[C@@]56CCCN5C[C@H](F)C6)nc4c3F)c12 (stereo partly drawn) [Compound 248, 4-(4-(1-(1H-1,2,3-triazole-1-carbonyl)-1,6-diazaspiro[3.4]octan-6-yl)-6-chloro-8-fluoro-2-(((2R,7aS)-2-fluorotetrahydro-1H-pyrrolizin-7a(5H)-yl)methoxy)quinazolin-7-yl)-2-amino-7-fluorobenzo[b]thiophene-3-carbonitrile]
< 5 | < 5 | < 5 | N#Cc1c(N)sc2c(F)ccc(-c3c(Cl)cc4c(N5CCC6(CCCN6C(=O)C6CC6(F)F)CC5)nc(OC[C@@]56CCCN5C[C@H](F)C6)nc4c3F)c12 (stereo partly drawn) [Compound 341, 2-amino-4-(6-chloro-4-(1-(2,2-difluorocyclopropane-1-carbonyl)-1,8-diazaspiro[4.5]decan-8-yl)-8-fluoro-2-(((2R,7aS)-2-fluorotetrahydro-1H-pyrrolizin-7a(5H)-yl)methoxy)quinazolin-7-yl)-7-fluorobenzo[b]thiophene-3-carbonitrile]
< 5 | < 5 | < 5 | C[C@@H]1C[C@@]2(CCN2)CN1c1nc(OC[C@@]23CCCN2C[C@H](F)C3)nc2c(F)c(-c3ccc(F)c4sc(N)c(C#N)c34)c(Cl)cc12 [Compound 335, 2-amino-4-(6-chloro-8-fluoro-2-(((2R,7aS)-2-fluorotetrahydro-1H-pyrrolizin-7a(5H)-yl)methoxy)-4-((4S,7R)-7-methyl-1,6-diazaspiro[3.4]octan-6-yl)quinazolin-7-yl)-7-fluorobenzo[b]thiophene-3-carbonitrile]
< 5 | < 5 | < 5 | N#Cc1c(N)sc2c(F)ccc(-c3c(Cl)cc4c(N5CCC6(CCN6C(=O)n6cnc(Cl)n6)C5)nc(OC[C@@]56CCCN5C[C@H](F)C6)nc4c3F)c12 (stereo partly drawn) [Compound 312, 2-amino-4-(6-chloro-4-(1-(3-chloro-1H-1,2,4-triazole-1-carbonyl)-1,6-diazaspiro[3.4]octan-6-yl)-8-fluoro-2-(((2R,7aS)-2-fluorotetrahydro-1H-pyrrolizin-7a(5H)-yl)methoxy)quinazolin-7-yl)-7-fluorobenzo[b]thiophene-3-carbonitrile]
< 5 | < 5 | < 5 | Cc1ncn(C(=O)N2CC[C@@]23CCN(c2nc(OC[C@@]45CCCN4C[C@H](F)C5)nc4c(F)c(-c5ccc(F)c6sc(N)c(C#N)c56)c(Cl)cc24)C3)n1 (atropisomer, axis not shown; (aS)) [Compound 338, (R)-2-amino-4-(6-chloro-8-fluoro-2-(((2R,7aS)-2-fluorotetrahydro-1H-pyrrolizin-7a(5H)-yl)methoxy)-4-((R)-1-(3-methyl-1H-1,2,4-triazole-1-carbonyl)-1,6-diazaspiro[3.4]octan-6-yl)quinazolin-7-yl)-7-fluorobenzo[b]thiophene-3-carbonitrile]
< 5 | < 5 | < 5 | N#Cc1c(N)sc2c(F)ccc(-c3c(Cl)cc4c(N5CC[C@@]6(CCN6C(=O)n6cnc(CCl)n6)C5)nc(OC[C@@]56CCCN5C[C@H](F)C6)nc4c3F)c12 [Compound 322, 2-amino-4-(6-chloro-4-((R)-1-(3-(chloromethyl)-1H-1,2,4-triazole-1-carbonyl)-1,6-diazaspiro[3.4]octan-6-yl)-8-fluoro-2-(((2R,7aS)-2-fluorotetrahydro-1H-pyrrolizin-7a(5H)-yl)methoxy)quinazolin-7-yl)-7-fluorobenzo[b]thiophene-3-carbonitrile]

Reference: patent publication US20240116951A1, “HETEROCYCLIC COMPOUNDS AND USES THEREOF” (Kumquat Biosciences Inc., priority 2022, published 2024)
